Measurements taken from patent publication US11873517B2, “Candida tropicalis strain having improved tolerance to the cytotoxicity of substrates, and method for producing dicarboxylic acid using same” (priority 2018, dated 2024).

Tested on: Candida tropicalis MYA_3404 strain
Test: toxicity test of substrates and product: growth of the strain in YNB medium
Conditions: 36 hours; for growth of the strain in the medium to which the substance was added, compared to the control: added at 5 g/L to YNB medium, 30° C., 200 rpm, FIG. 1

SMILES | growth of the strain in the medium to which the substance was added, compared to the control | cytotoxicity compared to the sebacic acid (5 g/L in YNB medium)
CCCCCCCCCC(=O)O [DA, decanoic acid] | did not grow | –
CCCCCCCCCC(=O)OC [DAME, decanoic acid methyl ester] | did not grow | stronger cytotoxicity
O=C(O)CCCCCCCCC(=O)O [sebacic acid] | the growth rate and the total cell mass of the strain decreased | –
